Assay results as given in paper PMC5218480 (PLoS ONE, 2017).

System: MV-4-11 cells
Experiment: Gene expression microarray analysis (Affymetrix PrimeView) and GSEA
Format: cell-based, human
Design: RFU PODN (11730768_x_at) / Fold change /veh PODN (11730768_x_at) / RFU LINC00158 (11744669_a_at) / Fold change /veh LINC00158 (11744669_a_at) / RFU DUSP10 (11751237_a_at) / Fold change /veh DUSP10 (11751237_a_at) / RFU ID3 (11757404_x_at) / Fold change /veh ID3 (11757404_x_at) / RFU PLEKHG5 (11737974_s_at) / Fold change /veh PLEKHG5 (11737974_s_at) / RFU LRRC4B (11730491_at) / Fold change /veh LRRC4B (11730491_at) / RFU GIMAP4 (11747438_a_at) / Fold change /veh GIMAP4 (11747438_a_at) / RFU KRT8 (11758183_x_at) / Fold change /veh KRT8 (11758183_x_at) / RFU CNN1 (11734310_a_at) / Fold change /veh CNN1 (11734310_a_at) / RFU VPS37D (11726825_at) / Fold change /veh VPS37D (11726825_at) / RFU C10orf10 (11716522_x_at) / Fold change /veh C10orf10 (11716522_x_at) / RFU KIR2DL2 /// KIR2DL4 /// KIR2DL5A /// KIR2DL5B /// KIR2DS1 /// KIR2DS2 /// KIR2DS3 /// KIR2DS4 /// KIR3DL3 /// KIR3DL3 /// KIR3DS1 (11738374_at) / Fold change /veh KIR2DL2 /// KIR2DL4 /// KIR2DL5A /// KIR2DL5B /// KIR2DS1 /// KIR2DS2 /// KIR2DS3 /// KIR2DS4 /// KIR3DL3 /// KIR3DL3 /// KIR3DS1 (11738374_at) / RFU C1QL1 (11718748_at) / Fold change /veh C1QL1 (11718748_at) / RFU TMPRSS4 (11747572_a_at) / Fold change /veh TMPRSS4 (11747572_a_at) / RFU HAMP (11756126_x_at) / Fold change /veh HAMP (11756126_x_at) / RFU RNFT2 (11725882_a_at) / Fold change /veh RNFT2 (11725882_a_at) / RFU NR4A2 (11747474_a_at) / Fold change /veh NR4A2 (11747474_a_at) / RFU ABCC12 (11746883_a_at) / Fold change /veh ABCC12 (11746883_a_at) / RFU TMEM136 (11760407_x_at) / Fold change /veh TMEM136 (11760407_x_at) / RFU CLDN22 /// WWC2 (11732394_at) / Fold change /veh CLDN22 /// WWC2 (11732394_at) / RFU HLA-DPB1 (11760878_x_at) / Fold change /veh HLA-DPB1 (11760878_x_at) / RFU SPINT1 (11716480_a_at) / Fold change /veh SPINT1 (11716480_a_at) / RFU GAP43 (11754022_s_at) / Fold change /veh GAP43 (11754022_s_at) / RFU A4GNT (11735810_at) / Fold change /veh A4GNT (11735810_at) / RFU PRB3 (11715151_x_at) / Fold change /veh PRB3 (11715151_x_at) / RFU TUBB4B (11761932_at) / Fold change /veh TUBB4B (11761932_at) / RFU CAPN14 (11732068_a_at) / Fold change /veh CAPN14 (11732068_a_at) / RFU TMCC2 (11721928_a_at) / Fold change /veh TMCC2 (11721928_a_at) / RFU IRGQ (11745062_a_at) / Fold change /veh IRGQ (11745062_a_at) / RFU FAM174B (11720279_a_at) / Fold change /veh FAM174B (11720279_a_at) / RFU TMPRSS4 (11748680_a_at) / Fold change /veh TMPRSS4 (11748680_a_at) / RFU FAM212B (11763350_a_at) / Fold change /veh FAM212B (11763350_a_at) / RFU PLEKHG5 (11743358_a_at) / Fold change /veh PLEKHG5 (11743358_a_at) / RFU ZSCAN30 (11745921_a_at) / Fold change /veh ZSCAN30 (11745921_a_at) / RFU CMKLR1 (11741424_a_at) / Fold change /veh CMKLR1 (11741424_a_at) / RFU LOC101060620 /// MAPK8IP1 (11723275_at) / Fold change /veh LOC101060620 /// MAPK8IP1 (11723275_at) / RFU SPTSSB (11747773_x_at) / Fold change /veh SPTSSB (11747773_x_at) / RFU PRSS12 (11739890_at) / Fold change /veh PRSS12 (11739890_at) / RFU BIN1 (11741810_x_at) / Fold change /veh BIN1 (11741810_x_at) / RFU WNT11 (11732464_a_at) / Fold change /veh WNT11 (11732464_a_at) / RFU C10orf10 (11716521_a_at) / Fold change /veh C10orf10 (11716521_a_at) / RFU C5orf56 (11738089_at) / Fold change /veh C5orf56 (11738089_at) / RFU CYB561 (11721691_x_at) / Fold change /veh CYB561 (11721691_x_at) / RFU ANKRD19P (11752326_a_at) / Fold change /veh ANKRD19P (11752326_a_at) / RFU OR2T12 /// OR2T33 /// OR2T8 (11738714_s_at) / Fold change /veh OR2T12 /// OR2T33 /// OR2T8 (11738714_s_at) / RFU VCAN (11748164_a_at) / Fold change /veh VCAN (11748164_a_at) / RFU JSRP1 (11732532_at) / Fold change /veh JSRP1 (11732532_at) / RFU KRTAP10-11 (11738290_x_at) / Fold change /veh KRTAP10-11 (11738290_x_at) / RFU MYO3A (11730013_a_at) / Fold change /veh MYO3A (11730013_a_at) / RFU EBF3 (11725865_a_at) / Fold change /veh EBF3 (11725865_a_at) / RFU CAMK2N1 (11719241_x_at) / Fold change /veh CAMK2N1 (11719241_x_at) / RFU C5orf56 (11738088_a_at) / Fold change /veh C5orf56 (11738088_a_at) / RFU OLFML3 (11715873_a_at) / Fold change /veh OLFML3 (11715873_a_at) / RFU LOC100653217 /// NTM (11731650_a_at) / Fold change /veh LOC100653217 /// NTM (11731650_a_at) / RFU MAPK11 (11762145_a_at) / Fold change /veh MAPK11 (11762145_a_at) / RFU FIZ1 (11724087_x_at) / Fold change /veh FIZ1 (11724087_x_at) / RFU OASL (11726364_x_at) / Fold change /veh OASL (11726364_x_at) / RFU SOX15 (11748057_x_at) / Fold change /veh SOX15 (11748057_x_at) / RFU CD79A (11719716_a_at) / Fold change /veh CD79A (11719716_a_at) / RFU HIST1H1D (11736915_at) / Fold change /veh HIST1H1D (11736915_at) / RFU CASKIN2 (11723855_a_at) / Fold change /veh CASKIN2 (11723855_a_at) / RFU LOC730098 (11760151_x_at) / Fold change /veh LOC730098 (11760151_x_at) / RFU OR4N2 (11742367_at) / Fold change /veh OR4N2 (11742367_at) / RFU PRRT2 (11749266_a_at) / Fold change /veh PRRT2 (11749266_a_at) / RFU SNX32 (11753110_a_at) / Fold change /veh SNX32 (11753110_a_at) / RFU CDHR5 (11726645_a_at) / Fold change /veh CDHR5 (11726645_a_at) / RFU RCAN1 (11760418_a_at) / Fold change /veh RCAN1 (11760418_a_at) / RFU FAM167A (11723789_a_at) / Fold change /veh FAM167A (11723789_a_at) / RFU FAM26E (11764081_at) / Fold change /veh FAM26E (11764081_at) / RFU ISYNA1 (11749810_s_at) / Fold change /veh ISYNA1 (11749810_s_at) / RFU ACY1 (11761880_at) / Fold change /veh ACY1 (11761880_at) / RFU 11764098_at / Fold change /veh 11764098_at / RFU SAMD14 (11745864_x_at) / Fold change /veh SAMD14 (11745864_x_at) / RFU NPB (11741838_a_at) / Fold change /veh NPB (11741838_a_at) / RFU TMPRSS6 (11731388_a_at) / Fold change /veh TMPRSS6 (11731388_a_at) / RFU KRTAP10-2 (11738614_at) / Fold change /veh KRTAP10-2 (11738614_at) / RFU ARHGAP8 /// PRR5-ARHGAP8 (11727945_x_at) / Fold change /veh ARHGAP8 /// PRR5-ARHGAP8 (11727945_x_at) / RFU KRTAP5-7 /// NADSYN1 (11734609_at) / Fold change /veh KRTAP5-7 /// NADSYN1 (11734609_at) / RFU RASL12 (11751679_a_at) / Fold change /veh RASL12 (11751679_a_at) / RFU CDKN2B (11736163_a_at) / Fold change /veh CDKN2B (11736163_a_at) / RFU PRF1 (11729649_at) / Fold change /veh PRF1 (11729649_at) / RFU, ZNF638 /// ZNF638-IT1 / Fold change vs veh, ZNF638 /// ZNF638-IT1 / RFU, PANK3 / Fold change vs veh, PANK3 / RFU, SH3YL1 / Fold change vs veh, SH3YL1 / RFU, ZEB2 / Fold change vs veh, ZEB2 / RFU, NRIP1 / Fold change vs veh, NRIP1 / RFU, PTTG1IP / Fold change vs veh, PTTG1IP / RFU, CAPN2 / Fold change vs veh, CAPN2 / RFU, MED14 / Fold change vs veh, MED14 / RFU, SNORA58 / Fold change vs veh, SNORA58 / RFU, C1orf63 / Fold change vs veh, C1orf63 / RFU, LRRFIP1 / Fold change vs veh, LRRFIP1 / RFU, NDUFAF7 / Fold change vs veh, NDUFAF7 / RFU, SLC12A2 / Fold change vs veh, SLC12A2 / RFU, IBTK / Fold change vs veh, IBTK / RFU, ESF1 / Fold change vs veh, ESF1 / Fold change vs veh, TMEM50B / RFU, TAOK1 / Fold change vs veh, TAOK1 / RFU, ACBD3 / Fold change vs veh, ACBD3 / RFU, TMA16 / Fold change vs veh, TMA16 / RFU, RWDD3 / Fold change vs veh, RWDD3 / RFU, BCAT1 / Fold change vs veh, BCAT1 / RFU, EDEM3 / Fold change vs veh, EDEM3 / RFU, TMEM33 / Fold change vs veh, TMEM33 / RFU, WDR75 / Fold change vs veh, WDR75 / RFU, AHCTF1 / Fold change vs veh, AHCTF1 / RFU, TFRC / Fold change vs veh, TFRC / RFU, ZDHHC17 / Fold change vs veh, ZDHHC17 / RFU, NOM1 / Fold change vs veh, NOM1 / RFU, ARL8B / Fold change vs veh, ARL8B / RFU, ZBTB11 / Fold change vs veh, ZBTB11 / RFU, TAMM41 / Fold change vs veh, TAMM41 / RFU, KIAA1704 /// LOC100996395 / Fold change vs veh, KIAA1704 /// LOC100996395 / RFU, ING1 / Fold change vs veh, ING1 / RFU, TRMT61B / Fold change vs veh, TRMT61B / RFU, FUBP3 / Fold change vs veh, FUBP3 / RFU, TP53 / Fold change vs veh, TP53 / RFU, TNKS2 / Fold change vs veh, TNKS2 / RFU, ZFP14 / Fold change vs veh, ZFP14 / RFU, ACTR2 / Fold change vs veh, ACTR2 / RFU, PPP3R1 / Fold change vs veh, PPP3R1 / RFU, PIK3R1 / Fold change vs veh, PIK3R1 / RFU, HNRNPA1 / Fold change vs veh, HNRNPA1 / RFU, RNF170 / Fold change vs veh, RNF170 / RFU, ZNF28 / Fold change vs veh, ZNF28 / RFU, RNGTT / Fold change vs veh, RNGTT / RFU, OGT / Fold change vs veh, OGT / RFU, BRD1 / Fold change vs veh, BRD1 / RFU, MARS / Fold change vs veh, MARS / RFU, ZNF655 / Fold change vs veh, ZNF655 / RFU, FAHD1 / Fold change vs veh, FAHD1 / RFU, BDP1 / Fold change vs veh, BDP1 / RFU, LRRCC1 / Fold change vs veh, LRRCC1 / RFU, ARID1A / Fold change vs veh, ARID1A / RFU, ZNF146 / Fold change vs veh, ZNF146 / RFU, ZNF330 / Fold change vs veh, ZNF330 / RFU, GPN3 / Fold change vs veh, GPN3 / RFU, C9orf123 / Fold change vs veh, C9orf123 / RFU, N4BP2L2 / Fold change vs veh, N4BP2L2 / RFU, ARFIP1 / Fold change vs veh, ARFIP1 / RFU, FAM179B / Fold change vs veh, FAM179B / RFU, BCL10 / Fold change vs veh, BCL10 / RFU, UHRF1BP1L / Fold change vs veh, UHRF1BP1L / RFU, BET1 / Fold change vs veh, BET1 / RFU, CNOT2 / Fold change vs veh, CNOT2 / RFU, ZNF268 / Fold change vs veh, ZNF268 / Fold change vs veh, ZNF507 / RFU, DGCR2 / Fold change vs veh, DGCR2 / RFU, WDSUB1 / Fold change vs veh, WDSUB1 / Fold change vs veh, HSP90B1 /// MIR3652 / RFU, ADSS / Fold change vs veh, ADSS / RFU, GK / Fold change vs veh, GK / RFU, ZNF148 / Fold change vs veh, ZNF148 / RFU, TAF9 / Fold change vs veh, TAF9 / RFU, SLC1A5 / Fold change vs veh, SLC1A5 / RFU, SLMO2 / Fold change vs veh, SLMO2 / RFU, ABCC4 / Fold change vs veh, ABCC4 / RFU, LOC101060439 /// RAP1B / Fold change vs veh, LOC101060439 /// RAP1B / RFU, RFX7 / Fold change vs veh, RFX7 / RFU, GTPBP10 / Fold change vs veh, GTPBP10 / RFU, CNEP1R1 / Fold change vs veh, CNEP1R1 / RFU, BIVM-ERCC5 /// ERCC5 / Fold change vs veh, BIVM-ERCC5 /// ERCC5 / RFU, ILF3 / Fold change vs veh, ILF3 / RFU 11762660_at / Fold change /veh 11762660_at / RFU VCAN (11757783_s_at) / Fold change /veh VCAN (11757783_s_at) / RFU DDX43 (11728927_at) / Fold change /veh DDX43 (11728927_at) / RFU KRT8 (11758188_x_at) / Fold change /veh KRT8 (11758188_x_at) / RFU NKD1 (11759106_at) / Fold change /veh NKD1 (11759106_at) / RFU SRD5A1 (11742802_a_at) / Fold change /veh SRD5A1 (11742802_a_at) / RFU TPSAB1 /// TPSB2 (11721975_s_at) / Fold change /veh TPSAB1 /// TPSB2 (11721975_s_at) / RFU GSTM3 (11746129_a_at) / Fold change /veh GSTM3 (11746129_a_at) / RFU IL23R (11737362_x_at) / Fold change /veh IL23R (11737362_x_at) / RFU TMEM51 (11727254_a_at) / Fold change /veh TMEM51 (11727254_a_at) / RFU PIWIL2 (11732686_x_at) / Fold change /veh PIWIL2 (11732686_x_at) / RFU ORM1 (11744905_x_at) / Fold change /veh ORM1 (11744905_x_at) / RFU CCDC152 (11743942_at) / Fold change /veh CCDC152 (11743942_at) / RFU ECM1 (11717891_a_at) / Fold change /veh ECM1 (11717891_a_at) / RFU IL23R (11748794_a_at) / Fold change /veh IL23R (11748794_a_at) / RFU TNFAIP8L3 (11732012_x_at) / Fold change /veh TNFAIP8L3 (11732012_x_at) / RFU MBOAT4 (11741988_at) / Fold change /veh MBOAT4 (11741988_at) / RFU 11764193_at / Fold change /veh 11764193_at / RFU TMEM53 (11763286_at) / Fold change /veh TMEM53 (11763286_at) / RFU MAGEB2 (11727129_at) / Fold change /veh MAGEB2 (11727129_at) / RFU TMEM200A (11744735_a_at) / Fold change /veh TMEM200A (11744735_a_at) / RFU CCDC152 (11751479_a_at) / Fold change /veh CCDC152 (11751479_a_at) / RFU FAM211A (11726209_a_at) / Fold change /veh FAM211A (11726209_a_at) / RFU RGS16 (11746705_a_at) / Fold change /veh RGS16 (11746705_a_at) / RFU VCAN (11755009_s_at) / Fold change /veh VCAN (11755009_s_at) / RFU RHOB (11743442_s_at) / Fold change /veh RHOB (11743442_s_at) / RFU RGS16 (11720943_a_at) / Fold change /veh RGS16 (11720943_a_at) / RFU RGS16 (11720944_at) / Fold change /veh RGS16 (11720944_at) / RFU, VPS4B / Fold change vs veh, VPS4B / RFU, CREB1 / Fold change vs veh, CREB1 / RFU, DNAJC13 / Fold change vs veh, DNAJC13 / RFU, GNAQ / Fold change vs veh, GNAQ / RFU, CDK5R1 / Fold change vs veh, CDK5R1 / RFU, ZRANB3 / Fold change vs veh, ZRANB3 / RFU, CUL4A / Fold change vs veh, CUL4A / RFU, CCNY / Fold change vs veh, CCNY / RFU, UFL1 / Fold change vs veh, UFL1 / RFU, COG3 / Fold change vs veh, COG3 / RFU, DIAPH2 / Fold change vs veh, DIAPH2 / RFU, SKA2 / Fold change vs veh, SKA2 / RFU, AFF3 / Fold change vs veh, AFF3 / RFU, LMF1 / Fold change vs veh, LMF1 / RFU, IPO11 / Fold change vs veh, IPO11 / RFU, DFFB / Fold change vs veh, DFFB / RFU, FOXP1 / Fold change vs veh, FOXP1 / RFU, CARD8 / Fold change vs veh, CARD8 / RFU, STRN3 / Fold change vs veh, STRN3 / RFU, ADK / Fold change vs veh, ADK / RFU, RASSF2 / Fold change vs veh, RASSF2 / RFU, WIPF1 / Fold change vs veh, WIPF1 / RFU, LARP1B / Fold change vs veh, LARP1B / RFU, RASA1 / Fold change vs veh, RASA1 / RFU, RB1 / Fold change vs veh, RB1 / RFU, PPFIA1 / Fold change vs veh, PPFIA1 / RFU, MAT2A / Fold change vs veh, MAT2A / RFU, CCT5 / Fold change vs veh, CCT5 / RFU, WDR92 / Fold change vs veh, WDR92 / RFU, CUX1 / Fold change vs veh, CUX1 / RFU, TTC7A / Fold change vs veh, TTC7A / RFU, TMEM135 / Fold change vs veh, TMEM135 / RFU, DEPTOR / Fold change vs veh, DEPTOR / RFU, CPM / Fold change vs veh, CPM / RFU, DNAJB6 / Fold change vs veh, DNAJB6 / RFU, CACNA2D3 / Fold change vs veh, CACNA2D3 / RFU, DTX4 / Fold change vs veh, DTX4 / RFU, TFCP2 / Fold change vs veh, TFCP2 / RFU, GMCL1 /// GMCL1P1 / Fold change vs veh, GMCL1 /// GMCL1P1 / RFU, AEBP2 / Fold change vs veh, AEBP2 / RFU, SNHG1 /// SNORD22 /// SNORD25 /// SNORD26 /// SNORD27 /// SNORD28 /// SNORD29 /// SNORD31 / Fold change vs veh, SNHG1 /// SNORD22 /// SNORD25 /// SNORD26 /// SNORD27 /// SNORD28 /// SNORD29 /// SNORD31 / Fold change (Aza/veh), C12orf56 (ProbeSet 11735607_a_at) / Fold change (ACY-1035/veh), C12orf56 (ProbeSet 11735607_a_at) / Fold change (Aza/veh), FGFR1OP (ProbeSet 11751329_s_at) / Fold change (ACY-1035/veh), FGFR1OP (ProbeSet 11751329_s_at) / Fold change (Aza/veh), VPS36 (ProbeSet 11739960_a_at) / Fold change (ACY-1035/veh), VPS36 (ProbeSet 11739960_a_at) / RFU SYPL1 (11715823_x_at) / Fold change /veh SYPL1 (11715823_x_at) / RFU IGFBP7 (11715501_s_at) / Fold change /veh IGFBP7 (11715501_s_at) / RFU REEP3 (11722064_at) / Fold change /veh REEP3 (11722064_at) / RFU IGLL1 (11728026_x_at) / Fold change /veh IGLL1 (11728026_x_at): dose or concentration left out as unconfirmed
Details: MV-4-11 cells, 48 hours

## Nc1ncn([C@@H]2O[C@H](CO)[C@@H](O)[C@H]2O)c(=O)n1 [azacitidine]
  Fold change /veh PRF1 (11729649_at): 1.08
